Data: patent US20220074923A1, “METHODS OF IDENTIFYING PARKIN-MEDIATED MITOPHAGY ACTIVATING AGENTS” (THE GOVERNING COUNCIL OF THE UNIVERSITY OF TORONTO, priority 2018, published 2022)

Legend:
HEK293 GFP Parkin cells [1] = test: High throughput small molecule screen for Parkin recruitment to mitochondria (high content imaging); format: cell-based; conditions: for % of cells with mitochondrial Parkin: CCCP only (DMSO pinned); for rank in the kinase inhibitor library screen (rank order by z-score): 4 μM, 16 h, then CCCP 2 h, rank out of 480, low rank = activator of Parkin recruitment, high rank = inhibitor
Experimental: 10 uL of 0.1 mg/mL Poly-D-Lys solution was added to 384-well plates for 5 minutes, followed by a PBS wash. Plates were dried for at least 2 hours. 50 μL of 600 000 HEK293 GFP Parkin cell/mL of DMEM was dispensed into each well. After 24 hours incubation to allow the cells to adhere, 200 nL of small molecules (or DMSO in columns 1, 2, 23 and 24) were pinned. Following a 16-hour incubation, 200 nL of 5 mM CCCP were added to all wells except columns 1 and 2, into which 200 nL of DMSO was added. Following 2-hour incubation, cells were fixed with 4% paraformaldehyde (PFA) and stained with 50 μL of 1 μg/mL DAPI solution for 15 minutes. After the final PBS wash, plates were ready for high content microscopy.
Images were acquired on IN Cell Analyzer 6000 (GE Healthcare), equipped with sCMOS camera (2048×2048), and 20x/0.45 NA Plan Fluor objective (Nikon) in open aperture mode using 1×1 binning. Image analysis was performed using Columbus Image Analysis System (PerkinElmer). Nuclei were initially detected in DAPI channel, followed by whole cell segmentation in GFP channel. Using PhenoLOGIC machine learning plug-in, cells were split into 2 sub-populations: cells with even GFP-Parkin distribution and cells where GFP-Parkin was localized to mitochondria. The percentage of cells with mitochondrial GFP-Parkin was determined per well. The molecules were then rank ordered based on z-score, which is calculated using the formula: […]
where x is the percentage of cells with mitochondrial GFP-Parkin for a specific small molecule, μ is the average percentage of cells with mitochondrial Parkin in positive control columns 23 and 24, where cells are treated with CCCP only.
These cell lines were screened across 2 biological replicates with compounds from the kinase inhibitor (n=480) and Prestwick (n=1120) collections. The 3-day screening protocol consisted of (1) seeding cells, (2) pinning small molecules at 4 μM concentration and (3) inducing mitophagy with CCCP, followed by processing of plates for high content imaging. Following image acquisition, DAPI staining was used to segment cells within each image. Supervised machine learning was used to classify cells into two classes: (1) cells with cytosolic Parkin distribution and (2) those with Parkin localized to mitochondria. […] Compounds which increased the proportion of class 2 cells across 2 biological replicates, compared to the CCCP-only treated cells (FIG. 10), as indicated by their z-score (FIG. 11), were considered hits.

[2] = tested on: HeLa cells stably expressing GFP parkin and mito-DsRed; test: Mitochondrial clearance assay; format: cell-based; conditions: pre-treated with DMSO, 24 hour 10 μM CCCP
Experimental: HeLa cells stably expressing GFP parkin and mito-DsRed were seeded into 12-well plates containing coverslips and allowed to adhere overnight. Cells were then treated with DMSO or 0.5 μM SR3677 for 2 hours prior to addition of 10 μM CCCP for 24 hours. Cells were then washed with PBS, fixed with 4% PFA and washed with PBS again prior to the mounting of coverslips onto glass slides. Mitochondrial clearance was quantified by counting the number of cells in each treatment to retain mito-DsRed signal. 3 independent trials were performed with at least 50 cells quantified per trial.

SH-SY5Y cells = test: Cell viability by crystal violet staining; format: cell-based; conditions: CCCP alone, 24 hours
Experimental: A) SH-SY5Y cells were pre-treated with either DMSO or 0.5 μM SR3677 prior to addition of either DMSO or 10 μM CCCP for 24 hours. Following treatment, cells were washed, fixed with 4% paraformaldehyde and stained with crystal violet dye. B) The OD at 550 nm was measured to assess crystal violet staining.
To determine whether these findings could be translated into dopaminergic neurons, the study was continued in the dopaminergic neuroblastoma SH-SY5Y cell line. Parkin undergoes a similar CCCP-dependent subcellular transition from cytosol to mitochondria in these cells^12. First, whether the viability of these cells would be improved by SR3677 was investigated. Initially, experiments were conducted using crystal violet staining as an indicator of cell viability. […] Next, SH-SY5Y cells were differentiated into a more neuron-like population according to protocols previously described^10 and ATP levels were measured. […] Varying concentrations of SR3677 were co-administered alongside the PD-causing toxin paraquat.

[3] = cited from earlier work
ROCK1 = ROCK1 (Homo sapiens, UniProt Q13464); conditions: biochemical and cell-based assays, review; cited from earlier work
ROCK1, sequence (Q13464 whole entry, species assumed): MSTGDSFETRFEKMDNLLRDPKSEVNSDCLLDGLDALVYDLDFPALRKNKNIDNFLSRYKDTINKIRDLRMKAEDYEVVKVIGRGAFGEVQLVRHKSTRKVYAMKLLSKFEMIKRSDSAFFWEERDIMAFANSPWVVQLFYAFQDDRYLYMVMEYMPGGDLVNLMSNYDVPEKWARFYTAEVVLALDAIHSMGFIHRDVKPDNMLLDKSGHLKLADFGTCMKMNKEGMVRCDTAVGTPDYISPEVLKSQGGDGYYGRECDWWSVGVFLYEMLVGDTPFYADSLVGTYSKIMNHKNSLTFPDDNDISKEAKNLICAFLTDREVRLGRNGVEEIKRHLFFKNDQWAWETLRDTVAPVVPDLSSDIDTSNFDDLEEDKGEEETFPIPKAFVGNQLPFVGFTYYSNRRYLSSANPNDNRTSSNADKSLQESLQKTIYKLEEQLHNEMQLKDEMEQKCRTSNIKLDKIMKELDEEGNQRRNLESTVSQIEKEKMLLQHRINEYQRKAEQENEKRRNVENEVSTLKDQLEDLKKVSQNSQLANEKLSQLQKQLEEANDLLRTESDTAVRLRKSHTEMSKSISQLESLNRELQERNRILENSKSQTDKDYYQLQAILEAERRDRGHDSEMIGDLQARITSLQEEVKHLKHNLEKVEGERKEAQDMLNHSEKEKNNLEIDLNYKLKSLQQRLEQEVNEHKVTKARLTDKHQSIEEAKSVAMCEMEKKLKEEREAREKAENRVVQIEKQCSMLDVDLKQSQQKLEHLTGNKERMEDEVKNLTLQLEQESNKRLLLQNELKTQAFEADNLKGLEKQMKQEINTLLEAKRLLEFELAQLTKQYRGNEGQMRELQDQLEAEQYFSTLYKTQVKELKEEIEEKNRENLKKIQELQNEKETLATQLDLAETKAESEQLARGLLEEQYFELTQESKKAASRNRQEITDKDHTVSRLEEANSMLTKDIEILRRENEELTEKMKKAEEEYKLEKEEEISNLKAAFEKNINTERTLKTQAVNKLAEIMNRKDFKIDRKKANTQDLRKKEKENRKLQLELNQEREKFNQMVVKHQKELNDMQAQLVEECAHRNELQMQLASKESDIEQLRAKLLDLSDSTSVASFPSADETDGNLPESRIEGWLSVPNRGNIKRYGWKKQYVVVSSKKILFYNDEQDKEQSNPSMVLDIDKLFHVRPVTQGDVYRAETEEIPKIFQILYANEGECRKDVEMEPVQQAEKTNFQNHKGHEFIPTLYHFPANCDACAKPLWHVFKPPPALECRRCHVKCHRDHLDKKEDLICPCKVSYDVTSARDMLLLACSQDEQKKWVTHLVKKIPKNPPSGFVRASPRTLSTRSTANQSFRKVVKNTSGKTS

HEK293 GFP Parkin cells [4] = test: Parkin recruitment assay; format: cell-based
Experimental: HEK293 GFP Parkin cells were seeded into 12-well plates containing coverslips. Cells were treated with small molecules for 2 hours prior to mitophagy induction with 10 μM CCCP, unless indicated otherwise. Following fixation with 4% PFA, immunostaining was carried out using anti-ATP5A primary antibody and anti-mouse Alex Fluor 568.
To measure the percentage of cells with Parkin localized to mitochondria a 2 step process was employed: (1) whole cell segmentation based on GFP Parkin using CellProfiler software and (2) classification into Parkin distribution subpopulation using CellProfiler Analyst. The percentage of cells with Parkin localized to mitochondria was determined in each image. Images were taken at 20× magnification for this experiment, resulting in the classification of at least 300 cells in each treatment group per trial.

ROCK2 = ROCK2 (Homo sapiens, UniProt O75116); conditions: biochemical and cell-based assays, previous studies; cited from earlier work
ROCK2, sequence (O75116 whole entry): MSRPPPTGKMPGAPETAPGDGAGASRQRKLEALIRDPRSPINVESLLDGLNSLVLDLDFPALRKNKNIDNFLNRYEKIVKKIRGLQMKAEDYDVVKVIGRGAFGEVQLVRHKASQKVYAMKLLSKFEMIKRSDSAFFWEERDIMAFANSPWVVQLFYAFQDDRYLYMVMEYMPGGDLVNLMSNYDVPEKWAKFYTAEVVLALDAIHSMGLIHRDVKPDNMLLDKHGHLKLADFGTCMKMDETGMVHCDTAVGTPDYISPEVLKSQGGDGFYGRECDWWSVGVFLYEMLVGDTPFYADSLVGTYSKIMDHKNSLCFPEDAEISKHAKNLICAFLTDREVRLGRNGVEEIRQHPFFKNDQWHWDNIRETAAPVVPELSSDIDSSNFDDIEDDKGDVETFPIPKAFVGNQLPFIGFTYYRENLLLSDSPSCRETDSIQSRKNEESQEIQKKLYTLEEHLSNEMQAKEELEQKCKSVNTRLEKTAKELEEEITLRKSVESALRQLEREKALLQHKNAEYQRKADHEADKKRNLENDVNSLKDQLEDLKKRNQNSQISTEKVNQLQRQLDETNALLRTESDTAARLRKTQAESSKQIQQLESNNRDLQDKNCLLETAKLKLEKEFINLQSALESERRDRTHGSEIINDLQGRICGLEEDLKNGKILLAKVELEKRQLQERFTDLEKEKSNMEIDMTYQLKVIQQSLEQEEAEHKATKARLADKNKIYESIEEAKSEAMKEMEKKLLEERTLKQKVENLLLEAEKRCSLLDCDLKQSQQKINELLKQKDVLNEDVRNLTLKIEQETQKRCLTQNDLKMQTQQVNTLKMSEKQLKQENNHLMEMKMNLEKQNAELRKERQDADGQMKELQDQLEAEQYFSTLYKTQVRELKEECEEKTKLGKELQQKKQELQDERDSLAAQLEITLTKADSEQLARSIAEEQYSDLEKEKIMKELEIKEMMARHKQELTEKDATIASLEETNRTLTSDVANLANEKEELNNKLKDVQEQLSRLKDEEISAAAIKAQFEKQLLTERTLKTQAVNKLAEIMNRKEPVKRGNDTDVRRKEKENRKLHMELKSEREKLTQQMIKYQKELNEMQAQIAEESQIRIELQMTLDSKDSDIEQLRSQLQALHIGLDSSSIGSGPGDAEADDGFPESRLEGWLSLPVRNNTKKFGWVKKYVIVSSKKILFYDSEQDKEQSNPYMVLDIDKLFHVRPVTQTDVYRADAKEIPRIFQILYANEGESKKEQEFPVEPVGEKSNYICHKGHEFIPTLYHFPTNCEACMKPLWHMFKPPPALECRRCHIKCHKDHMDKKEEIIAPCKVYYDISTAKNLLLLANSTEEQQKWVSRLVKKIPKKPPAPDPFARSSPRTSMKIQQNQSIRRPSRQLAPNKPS

HeLa cells [5] = test: Mito-QC assay (targeting of mitochondria to lysosomes); format: cell-based; conditions: 50 μM chloroquine 16 hours pre-treatment
Experimental: HeLa cells were seeded into 6-well plates containing glass coverslips and allowed to adhere overnight. Cells were co-transfected with RGOMP25 and Cerulean-Parkin plasmids 24 hours prior to treatments. E-64 and leupeptin were added along with either DMSO or 10 μM CCCP for 6 hours prior followed by a PBS wash, fixation with 4% PFA and a final PBS wash prior to mounting onto glass slides with Fluoromount.
Cells were treated with 50 μM chloroquine for 16 hours prior to addition of E64, leupeptin, SR3677 and CCCP in the indicated treatment group. For the in vivo mitoQC assays, 5 7-day old male TH-GAL4>UAS-mitoQC were placed into vials containing water (control), sublethal 1 mM paraquat, 1 mM SR3677 alone and in combination with paraquat for 7 days. […] Fly brains were mounted in VectaShield™ mounting medium for imaging using the Zeiss LSM700 confocal fluorescence microscope with 40× 1.4 NA Oil Plan-APOCRAMAT objective and the appropriate lasers and filter. […]
Quantification of the RG assay was done using Fiji software. […] A red/green fluorescence intensity ratio was determined for each pixel. Pixels were considered red-only if the red/green fluorescence ratio was greater than or equal to 1.5. The area of red-only pixels over the total non-background area was determined and averaged across 4 independent trials in which at least 20 cells were quantified per treatment.

[6] = used in Japan; cited from earlier work
PINK1 = PINK1 accumulation after mitochondrial damage (immunoblot); format: cell-based; conditions: Ac220 pre-treatment, CCCP; HeLa GFP Parkin and SH-SY5Y cells
Experimental: (§1) A) HeLa cells expressing GFP Parkin WT and mito-dsRed were treated with either DMSO, 10 μM CCCP or 4 μM Ac220 in combination with CCCP. B) Cell lysates from HeLa cells pre-treated with either DMSO or 4 μM Ac220 prior to addition of 10 μM CCCP were separated by SDS-PAGE and immunoblotting was performed against Mfn2 and actin. C) Cells were pre-treated with either DMSO, 2 μM Ac220, 1 μM Ac220 prior to addition of 10 μM CCCP. D) Cells were pre-treated with indicated concentrations of Ac220 prior to addition of 10 μM CCCP for 1 hour. Cell lysates were separated by SDS-PAGE and immunoblotting was performed against Mfn2 and actin. E) Densitometry analysis of Mfn2 levels normalized to loading control […]. Data is presented as mean±s.d. F) HeLa GFP Parkin cells were transfected with HA-PINK1 and pre-treated with either DMSO or Ac220 prior to addition of CCCP and Mg132. G) HeLa GFP Parkin cells and H) SH-SY5Y cells were pre-treated with either DMSO or Ac220 prior to addition of CCCP for the indicated time. Immunoblotting was performed using antibodies against PINK1 and actin.

[7] = tested on: HeLa cells expressing GFP Parkin WT and mito-dsRed; test: Parkin recruitment after Ac220 pre-treatment and CCCP; format: cell-based; conditions: Ac220 pre-treatment, 10 μM CCCP
Experimental: as §1

HeLa cells [8] = test: Immunoblotting of Mfn2 degradation after Ac220 and CCCP; format: cell-based; conditions: Ac220 pre-treatment, 10 μM CCCP
Experimental: as §1
Lysates were harvested using lysis buffer (0.1M Tris HCl, 0.01% SDS, pH 9) with 1× protease inhibitor cocktail (BioShop, PIC002.1). […] 12% SDS-PAGE gels were used to run samples to be analyzed for LC3 conversation and for Tom20 and 10% gels were run for all other samples. […]

In the case of `N#CC(C#N)=NNc1cccc(Cl)c1` [CCCP, carbonyl cyanide m-chlorophenylhydrazone], the “% of cells with mitochondrial Parkin” value (HEK293 GFP Parkin cells [1]; Prestwick library screen) is reported as 71.2±2.6%, the “% of cells with mitochondrial Parkin” value (HEK293 GFP Parkin cells [1]; kinase inhibitor library screen) is reported as 83.4±2.3% and the “% of cells that retained mito-DsRed” value [2] is reported as 47.5±8.25%. For the same compound, the crystal violet staining (SH-SY5Y cells) was “reduced the amount of staining”.

For `C[C@@H](N)[C@H]1CC[C@H](C(=O)Nc2ccncc2)CC1` [Y27632], the cell permeability [3] is given as “poor cell permeability”, the “rank in the kinase inhibitor library screen (rank order by z-score)” value (HEK293 GFP Parkin cells [1]) is given as 9/480 and the ROCK1 inhibition (ROCK1) is given as “sufficiently inhibit both ROCK1 and ROCK2”. The “Parkin recruitment on re-test” value (HEK293 GFP Parkin cells [4]; 10 μM, 2-hour treatment, CCCP) was “recapitulated the effects observed following overnight incubation”, the “Parkin distribution in the absence of CCCP” value (HEK293 GFP Parkin cells [4]; compound alone) was “diffuse” and the ROCK2 inhibition (ROCK2) was “sufficiently inhibit both ROCK1 and ROCK2”.

For `CCN(CC)CCCC(C)Nc1ccnc2cc(Cl)ccc12` (centres unmarked) [chloroquine], the “effect on SR3677-mediated enhancement of mitophagy” value (HeLa cells [5]) was “abrogates SR3677-mediated enhancement of mitophagy”.

For `O=S(=O)(c1cccc2cnccc12)N1CCCNCC1` [Fasudil], the “safety and efficacy in vasospasm following subarachnoid hemorrhage” value [6] is listed as “safety and efficacy” and the “class in the screen (FIG. 1b)” value (HEK293 GFP Parkin cells [1]; ROCK inhibitors, 4 μM plus CCCP) is listed as “Enhancers of Parkin recruitment”.

In the case of `CC(C)(C)c1cc(NC(=O)Nc2ccc(-c3cn4c(n3)sc3cc(OCCN5CCOCC5)ccc34)cc2)no1` [Ac220], the “PINK1 accumulation in response to mitochondrial damage” value (PINK1) is reported as “fails to accumulate”, the “rank in the kinase inhibitor library screen (rank order by z-score)” value (HEK293 GFP Parkin cells [1]) is reported as 475/480 and the Parkin recruitment [7] is reported as “inhibited Parkin recruitment”. The “degradation of Mfn2” value (HeLa cells [8]) was “inhibited”.
